From PubChem BioAssay AID248 (DTP/NCI, 2004)
Several values for one entry are separate records, joined by “and”; a condition that tells them apart may be missing. Equal entries are not always repeated. Inconclusive results and toxic doses are left out. Cut-off read from the data, not from the text of the source: active = T/C of 150% or more; inactive = T/C below 125%.

System: L1210 leukemia ip in BDF1 mice, survival T/C
Test: NCI In Vivo Anticancer Drug Screen. Data for tumor model L1210 Leukemia (intraperitoneal) in B6D2F1 (BDF1) mice
Conditions: endpoint: mean survival time, higher = longer survival
Outline: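 Transplantable tumor model; survival measured in treated vs vehicle control mice. Value = treated/control.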

[1] = dose: 100.0 mg/kg/injection, schedule: Q01DX001 (ip), vehicle: carboxymethylcellulose (CMC)
[2] = dose: 200.0 mg/kg/injection, schedule: Q01DX001 (ip), vehicle: carboxymethylcellulose (CMC)
[3] = dose: 400.0 mg/kg/injection, schedule: Q01DX001 (ip), vehicle: carboxymethylcellulose (CMC)
[4] = dose: 100.0 mg/kg/injection, schedule: Q01DX009 (ip), vehicle: saline
[5] = dose: 100.0 mg/kg/injection, schedule: Q04DX003 (ip), vehicle: saline with Tween-80
[6] = dose: 200.0 mg/kg/injection, schedule: Q04DX003 (ip), vehicle: saline with Tween-80
[7] = dose: 400.0 mg/kg/injection, schedule: Q04DX003 (ip), vehicle: saline with Tween-80
[8] = dose: 100.0 mg/kg/injection, schedule: Q04DX003 (ip), vehicle: Klucel (hydroxypropylcellulose) (HPC)
[9] = dose: 100.0 mg/kg/injection, schedule: Q01DX009 (ip), vehicle: Klucel (hydroxypropylcellulose) (HPC)
[10] = dose: 200.0 mg/kg/injection, schedule: Q01DX009 (ip), vehicle: Klucel (hydroxypropylcellulose) (HPC)
[11] = dose: 400.0 mg/kg/injection, schedule: Q01DX009 (ip), vehicle: Klucel (hydroxypropylcellulose) (HPC)
[12] = dose: 100.0 mg/kg/injection, schedule: Q01DX009 (ip), vehicle: saline with Tween-80
[13] = dose: 200.0 mg/kg/injection, schedule: Q01DX009 (ip), vehicle: saline with Tween-80
[14] = dose: 400.0 mg/kg/injection, schedule: Q01DX009 (ip), vehicle: saline with Tween-80
[15] = dose: 200.0 mg/kg/injection, schedule: Q04DX003 (ip), vehicle: Klucel (hydroxypropylcellulose) (HPC)
[16] = dose: 400.0 mg/kg/injection, schedule: Q04DX003 (ip), vehicle: Klucel (hydroxypropylcellulose) (HPC)
[17] = dose: 100.0 mg/kg/injection, schedule: Q01DX001 (ip), vehicle: Klucel (hydroxypropylcellulose) (HPC)
[18] = dose: 200.0 mg/kg/injection, schedule: Q01DX001 (ip), vehicle: Klucel (hydroxypropylcellulose) (HPC)
[19] = dose: 100.0 mg/kg/injection, schedule: Q04DX002 (ip), vehicle: saline

Measured: T/C

O=C1NC(=O)C(=Cc2ccccc2[N+](=O)[O-])C(=O)N1
inactive: [1] 93 % of control | [2] 91 % of control | [3] 87 % of control

CC1CN(Cl)C(=O)N(Cl)C1=O (stereo not given)
inactive: dose: 10.0 mg/kg/injection, schedule: Q01DX001 (ip), vehicle: saline 96 % of control | dose: 20.0 mg/kg/injection, schedule: Q01DX001 (ip), vehicle: saline 98 % of control | dose: 40.0 mg/kg/injection, schedule: Q01DX001 (ip), vehicle: saline 92 % of control

CC(NC(=O)Cc1ccccc1)C(=O)NN (stereo not given)
inactive: [4] 100 % of control | dose: 200.0 mg/kg/injection, schedule: Q01DX009 (ip), vehicle: saline 102 % of control | dose: 400.0 mg/kg/injection, schedule: Q01DX009 (ip), vehicle: saline 91 % of control

c1cnc2c3c(ccc2c1)CN(C1CCCCC1)CO3
inactive: dose: 100.0 mg/kg/injection, schedule: Q04DX003 (ip), vehicle: saline sonified 94 % of control | dose: 200.0 mg/kg/injection, schedule: Q04DX003 (ip), vehicle: saline sonified 91 % of control

CCCCCCC(C)OC(=O)CCl (stereo not given)
inactive: [5] 102 % of control | [6] 104 % of control | [7] 109 % of control

Nc1ccc2c(c1)/C(=N/O)c1cc([N+](=O)[O-])ccc1-2
inactive: [1] 100 % of control | [2] 105 % of control | [3] 112 % of control

Cc1cc(N(CCOS(C)(=O)=O)CCOS(C)(=O)=O)ccc1C=Nc1ccc(-c2csc(-c3ccccc3)n2)c(Cl)c1
inactive: dose: 20.0 mg/kg/injection, schedule: Q04DX003 (ip), vehicle: Klucel (hydroxypropylcellulose) (HPC) 121 % of control | dose: 60.0 mg/kg/injection, schedule: Q04DX003 (ip), vehicle: Klucel (hydroxypropylcellulose) (HPC) 122 % of control | dose: 80.0 mg/kg/injection, schedule: Q04DX003 (ip), vehicle: Klucel (hydroxypropylcellulose) (HPC) 120 % of control | [8] 122 % of control

Cc1cccc(C)c1NC(=O)Nc1cccc(O)c1
inactive: [9] 101 % of control | [10] 108 % of control | [11] 103 % of control

C(/C=C/c1ccccc1)=C1c2ccccc2-c2ccccc21
inactive: [12] 88 % of control | [5] 90 % of control | [13] 98 % of control | [6] 93 % of control | [14] 96 % of control | [7] 95 % of control

Cc1cc(-c2cc(C)sc2C)c(C)s1
inactive: [12] 87 % of control | [5] 96 % of control | [13] 92 % of control | [6] 94 % of control | [14] 94 % of control | [7] 96 % of control

O=S(=O)(OCCCl)c1ccc(Cl)c(S(=O)(=O)OCCCl)c1
inactive: [5] 97 % of control

Cc1cc(N=Nc2ccc(N(C)C)cc2)cc(C)[n+]1[O-]
inactive: [9] 104 % of control | [8] 100 % of control | [10] 98 % of control | [15] 95 % of control | [16] 88 % of control

CC1(C)OCC2SC(n3cnc4c(N)ncnc43)C(OS(C)(=O)=O)C2O1 (stereo not given)
inactive: dose: 100.0 mg/kg/injection, schedule: Q01DX005 (ip), vehicle: saline 97 % of control | dose: 200.0 mg/kg/injection, schedule: Q01DX005 (ip), vehicle: saline 90 % of control

CC1(c2ccc(Cl)cc2)NC(=O)N(CN2CCCCC2)C1=O (stereo not given)
inactive: dose: 12.5 mg/kg/injection, schedule: Q01DX009 (ip), vehicle: saline sonified 102 % of control | dose: 25.0 mg/kg/injection, schedule: Q01DX009 (ip), vehicle: saline sonified 96 % of control | dose: 50.0 mg/kg/injection, schedule: Q01DX009 (ip), vehicle: saline sonified 104 % of control

CC(=O)[O][Hg][C]([Hg][O]C(C)=O)([Hg][O]C(C)=O)[Hg][O]C(C)=O
inactive: [17] 91 % of control | [18] 96 % of control | dose: 400.0 mg/kg/injection, schedule: Q01DX001 (ip), vehicle: Klucel (hydroxypropylcellulose) (HPC) 89 % of control

CN(C)c1ncnc2c1cnn2C
inactive: [1] 96 % of control | [2] 110 % of control

Cc1c(C#N)oc2cccc(O)c12
inactive: [9] 100 % of control | dose: 100.0 mg/kg/injection, schedule: Q04DX002 (ip), vehicle: Klucel (hydroxypropylcellulose) (HPC) 109 % of control | [10] 100 % of control | dose: 200.0 mg/kg/injection, schedule: Q04DX002 (ip), vehicle: Klucel (hydroxypropylcellulose) (HPC) 109 % of control | [11] 96 % of control | dose: 400.0 mg/kg/injection, schedule: Q04DX002 (ip), vehicle: Klucel (hydroxypropylcellulose) (HPC) 102 % of control

O=[N+]([O-])c1ccc2c(c1)n([O-])c1ccccc1[n+]2=O
inactive: dose: 50.0 mg/kg/injection, schedule: Q04DX003 (ip), vehicle: Klucel (hydroxypropylcellulose) (HPC) 89 % of control | [17] 97 % of control | [8] 90 % of control and 92 % of control | [18] 95 % of control | [15] 97 % of control and 101 % of control

C=C(C)C1CC=C(C)CC1 (stereo not given)
inactive: dose: 100.0 mg/kg/injection, schedule: Q01DX001 (ip), vehicle: saline 111 % of control | [4] 91 % of control | dose: 100.0 mg/kg/injection, schedule: Q04DX003 (ip), vehicle: saline 110 % of control | dose: 200.0 mg/kg/injection, schedule: Q01DX001 (ip), vehicle: saline 105 % of control | dose: 200.0 mg/kg/injection, schedule: Q04DX003 (ip), vehicle: saline 97 % of control | dose: 400.0 mg/kg/injection, schedule: Q01DX001 (ip), vehicle: saline 111 % of control | dose: 400.0 mg/kg/injection, schedule: Q04DX003 (ip), vehicle: saline 97 % of control

CCOC(=O)Cc1ccc(N)cc1
inactive: [17] 104 % of control | [18] 101 % of control

CSc1cc(N)cc(C(=O)O)c1O
inactive: [12] 92 % of control | [13] 89 % of control | [14] 88 % of control

CN(C)/C=N/Nc1ccc([N+](=O)[O-])cc1[N+](=O)[O-]
inactive: [9] 94 % of control | [8] 102 % of control | [10] 94 % of control | [15] 97 % of control | [11] 96 % of control | [16] 97 % of control

O=C1OC(=O)C(=C(c2ccccc2)c2ccccc2)C1=C(c1ccccc1)c1ccccc1
inactive: [9] 101 % of control | [10] 92 % of control | [11] 92 % of control

CN(C)CC(Oc1ccccc1)c1ccccc1 (stereo not given)
inactive: [19] 98 % of control

CC(=O)NC(C)CCC(C)C (stereo not given)
inactive: [8] 101 % of control | [15] 100 % of control | [16] 101 % of control

C[N+]1(C)C2CC(O)CC1C1OC12 (stereo not given)
inactive: dose: 1.2 mg/kg/injection, schedule: Q01DX001 (ip), vehicle: saline 95 % of control | dose: 2.5 mg/kg/injection, schedule: Q01DX001 (ip), vehicle: saline 97 % of control | dose: 5.0 mg/kg/injection, schedule: Q01DX001 (ip), vehicle: saline 100 % of control

CCCCCCC(C)OCC(=O)c1ccccc1 (stereo not given)
inactive: [19] 94 % of control | dose: 200.0 mg/kg/injection, schedule: Q04DX002 (ip), vehicle: saline 91 % of control

CCOC(=O)c1nnc(-c2ccc(C)cc2)[nH]c1=O
inactive: dose: 50.0 mg/kg/injection, schedule: Q01DX009 (ip), vehicle: Klucel (hydroxypropylcellulose) (HPC) 95 % of control | [9] 95 % of control | [10] 106 % of control

CC1(c2cccc([N+](=O)[O-])c2)OCCO1
inactive: dose: 100.0 mg/kg/injection, schedule: Q01DX009 (ip), vehicle: other 100 % of control | dose: 100.0 mg/kg/injection, schedule: Q04DX003 (ip), vehicle: other 103 % of control | dose: 200.0 mg/kg/injection, schedule: Q01DX009 (ip), vehicle: other 98 % of control | dose: 200.0 mg/kg/injection, schedule: Q04DX003 (ip), vehicle: other 104 % of control | dose: 400.0 mg/kg/injection, schedule: Q01DX009 (ip), vehicle: other 104 % of control | dose: 400.0 mg/kg/injection, schedule: Q04DX003 (ip), vehicle: other 100 % of control

CC(=O)Nc1cc2[nH]c(=O)c3ccccc3c2cc1Cl
inactive: [1] 100 % of control | [2] 105 % of control | [3] 93 % of control
